Reference: ChEMBL document CHEMBL5226329, “Synthetic and computational efforts towards the development of peptidomimetics and small-molecule SARS-CoV 3CLpro inhibitors” (Bioorg Med Chem, 2021)
Where a SMILES comes first, the peptide text is derived from it. The star is where a group is joined. Cbz = O=C(OCc1ccccc1)*; CF3 = FC(F)(F)*

What was measured:
[1] = Inhibition of Severe acute respiratory syndrome coronavirus proteinase 3C assessed as inhibition constant by spectrophotometry assay; parameters: species or system Severe acute respiratory syndrome-related coronavirus
[2] = Inhibition of Severe acute respiratory syndrome coronavirus proteinase 3C using EDANS-Val-Asn-Ser-Thr-Leu-Gln-Ser-Gly-Leu-Arg-Lys-(Dabcyl)-Met substrate incubated for 1 hr by fluorescence based assay; parameters: species or system Severe acute respiratory syndrome-related coronavirus
[3] = Inhibition of Severe acute respiratory syndrome coronavirus proteinase 3C using Dabcy-KTSAVLQSGFRKME-Edans peptide as a substrate; parameters: species or system Severe acute respiratory syndrome-related coronavirus
[4] = Inhibition of Severe acute respiratory syndrome coronavirus proteinase 3C using Dabcy-KTSAVLQSGFRKME-Edans peptide as a substrate incubated for 10 mins by fluorescence based assay; parameters: species or system Severe acute respiratory syndrome-related coronavirus
[5] = Inhibition of Severe acute respiratory syndrome coronavirus proteinase 3C by FRET assay; parameters: species or system Severe acute respiratory syndrome-related coronavirus
[6] = Inhibition of Severe acute respiratory syndrome coronavirus proteinase 3C using (Dabcyl-KTSAVLQSGFRKME-Edans peptide as a substrate by fluorescence based assay; parameters: species or system Severe acute respiratory syndrome-related coronavirus
[7] = Inhibition of Severe acute respiratory syndrome coronavirus proteinase 3C using (Dabcyl-KTSAVLQSGFRKME-Edans peptide as a substrate assessed as inhibition constant by fluorescence based assay; parameters: species or system Severe acute respiratory syndrome-related coronavirus
[8] = Inhibition of recombinant Hepatitis A virus proteinase 3C using Ac-Leu-Ala-Ala-OH as a substrate expressed in Escherichia coli incubated for 15 mins by SDS-PAGE assay; parameters: species or system Hepatovirus A
[9] = Inhibition of Severe acute respiratory syndrome coronavirus proteinase 3C using Abz-SVTLQSG-Tyr(NO2)R peptide as a substrate; parameters: species or system Severe acute respiratory syndrome-related coronavirus

In the case of `CC(C)C[C@H](NC(=O)[C@@H](NC(=O)OCc1ccccc1)C(C)C)C(=O)N[C@@H](CCC(=O)O)C(=O)C(F)(F)F` (Cbz-Val-Leu-Glu-CF3), the Ki [1] is reported as 116000 nM.
`CN(C)CCCSc1ccccc1NC(=O)/C=C/c1ccccc1` [CINANSERIN] gave an IC50 [2] of 19000 nM.
Compound `O=C[C@H](C[C@@H]1CCNC1=O)NC(=O)[C@H](Cc1ccccc1)NC(=O)/C=C/c1ccc(Cl)cc1F` has an IC50 [3] of 200 nM.
For `O=C(/C=C/c1ccccc1)Nc1ccccc1SC(=O)/C=C/c1ccccc1`, the IC50 [4] was 1060 nM and the IC50 [5] was 1060 nM.
With `CN(C)c1ccc(C(=O)N[C@@H](Cc2ccccc2)C(=O)Nc2ccc([N+](=O)[O-])cc2Cl)cc1` the IC50 [6] was 60 nM and the Ki [7] was 30 nM.
Work on `CC(=O)N[C@@H](CC(C)C)C(=O)N[C@@H](C)C(=O)N[C@@H](C)C(=O)N[C@@H](C[C@@H]1CCNC1=O)C(=O)Cn1[nH]c(=O)c2c([N+](=O)[O-])cccc2c1=O` yielded an IC50 [8] of 1600 nM.
With `CC(=O)N[C@@H](CC(C)C)C(=O)N[C@@H](C)C(=O)N[C@@H](C)C(=O)N[C@@H](CCC(=O)N(C)C)C(=O)Cn1[nH]c(=O)c2ccccc2c1=O` the IC50 [8] was 13000 nM.
Compound `CC(=O)N[C@H](C(=O)N[C@H](C(=O)N[C@@H](CC(C)C)C(=O)N[C@@H](C[C@@H]1CCNC1=O)C(=O)Cn1[nH]c(=O)c2c([N+](=O)[O-])cccc2c1=O)C(C)OCc1ccccc1)C(C)C` (stereo not given in full) has an IC50 [9] of 600 nM.
